Data: patent US20080255215A1, “Combinations of Alkylalkanolamines and Alkylbisalkanolamines for Antimicrobial Compositions” (priority 2005, published 2008)

Assays:
[1] = system: Pseudomonas aerguinosa (ATCC 15442); test: Kinetic absorbance assay of bacterial growth (maximum growth slope), amines and amine pairs with KATHON 886MW biocide; format: cell-based; conditions: KATHON 100 ppm; for Maximum Growth Slope: pH 8.5
Description: A kinetic assay was run via absorbance measurements in a 384 well micro-titer plate with 75 μL) plate volume. Pseudomonas aerguinosa (ATCC 15442) was used as the inoculum for this kinetic assay. The organism was grown overnight in Trypticase Soy broth, pelleted, and resuspended in new medium at half its original density. The final inoculum was determined from plate counts on TSA plates spread at the time of use as 8.0×10E10 CFU/mL Each well of the microtiter plate (well volume=75 μL) was filled with 25 μL of a buffered aqueous solution of the amine being tested at the concentration necessary to yield the desired test concentration after dilution, enough Tris buffer to keep the well pH at 8.5, 25 μL of a biocide solution, and 25 μL reconstituted bacterial culture. The pH was adjusted to 8.5 with the buffer. The biocide was KATHON 886MW. The following amines were tested: butylaminoethanol (BAE, a compound according to formula I), butyldiethanolamine (BDEA, a compound according to formula II), octylaminoethanol (OAE, a compound according to formula I), and octyldiethanolamine (ODEA, a compound according to formula II), all at 99% purity): […]
The columns were laid out as follows:
The experiment ran for 20 hours with absorbance measurements taken once every 15 minutes. The data was processed by taking 10 point maximum growth slopes (milliOD per minute) after a 3 hour delay. The results of the above series are shown in FIG. 1, and selected data are tabulated in Table 2, in which biocide (KATHON) was used at a 100 ppm level.

[2] = system: Pseudomonas aerguinosa (ATCC 27853); test: End-point absorbance assay of bacterial growth in 384 well microtiter plate, single amines with KATHON 886MW biocide; format: cell-based; conditions: for Effectiveness as an enhancer for the biocide: amine 400 ppm with KATHON 886MW up to 50 ppm, assessment in words; for End-point absorbance (660 nm): amine 400 ppm, 48 hours growth, pH 8.5
Description: A kinetic assay of bacterial growth in a 384 well microtiter plate was monitored by absorbance at 660 nm. The bacteria was Pseudomonas aerguinosa (ATCC 27853). The organism was grown overnight in Trypticase Soy Broth (TSB), pelleted, and resuspended in new medium at half its original density. The final inoculum was determined from plate counts on Trypticase Soy Agar (TSA) plates spread at the time of use as 4.5×10E10 CFU/mL. Each well of the microtiter plate (well volume=75 μL) was filled with 25 μL of a buffered aqueous solution of the amine being tested at the concentration necessary to yield the desired test concentration after dilution, enough Tris buffer to keep the well pH at 8.5, 25 μL of a biocide solution, and 25 μL reconstituted bacterial culture. The biocide solution and bacterial inoculum were mixed with TSB nutrient. The biocide utilized was KATHON 886MW (supplied by Rohm & Haas Company, Springhouse, Pa.). KATHON 886 MW is a 15% active solution of ⅔ CMIT (5-chloro-2-methyl-4-isothiazolin-3-one) and ⅓ MIT (2-methyl-4-isothiazolin-3-one). The experimental assessment of bacterial growth was made through an end-point absorbance measurement taken after 48 hours of growth in the various media. The concentration of the 4 different amines was 400 ppm. The concentration of the biocide was an experimental variable. The amines employed in this experiment were decyloxypropylaminopropylamine (DOPAPA), octylaminoethanol (OAE, a compound according to formula I), octyldiethanolamine (ODEA, a compound according to formula II), and dicyclohexylamine (DCHA). All absorbance values are the averages of at least three replicates.

[3] = amine 2000 ppm, 10 point maximum slope after 3 hour delay

| Structure (SMILES) | Comparative effectiveness (runs of Table 2) ([1]; assessment in words) | Maximum Growth Slope ([1]; amine 1000 ppm) [MilliOD/min] | Maximum Growth Slope [1, 3] [MilliOD/min] | Effectiveness as an enhancer for the biocide [2] | End-point absorbance (660 nm) ([2]; KATHON 886MW loading 0 ppm) | End-point absorbance (660 nm) ([2]; KATHON 886MW loading 12 ppm) | End-point absorbance (660 nm) ([2]; KATHON 886MW loading 25 ppm) | End-point absorbance (660 nm) ([2]; KATHON 886MW loading 50 ppm) | Maximum Growth Slope ([1]; amine 250 ppm) [MilliOD/min] | Maximum Growth Slope ([1]; amine 500 ppm) [MilliOD/min] |
| --- | --- | --- | --- | --- | --- | --- | --- | --- | --- | --- |
| CCCCNCCO [BAE, butylaminoethanol] | more effective than BDEA alone | 0.9 | 0.4 |  |  |  |  |  |  |  |
| CCCCN(CCO)CCO [BDEA, butyldiethanolamine] |  | 1.3 | 0.8 |  |  |  |  |  |  |  |
| C1CCC(NC2CCCCC2)CC1 [DCHA, dicyclohexylamine, reference compound] |  |  |  | marginal enhancer | 0.14 | 0.14 | 0.10 | 0.07 |  |  |
| CCCCCCCCCCOCCCNCCCN [DOPAPA, decyloxypropylaminopropylamine, reference compound] |  |  |  | weak or ineffective | app. 0.3 | app. 0.3 | app. 0.3 | app. 0.3 |  |  |
| CCCCCCCCNCCO [OAE, octylaminoethanol] |  |  |  | excellent enhancer | 0 | 0 | 0 | 0 | 0.4 | −0.1 |
| CCCCCCCCN(CCO)CCO [ODEA, octyldiethanolamine] |  |  |  | moderately effective enhancer | 0.12 | 0.08 | 0.08 | 0.03 | 0.6 | 0.4 |
